{"source": "patent US20130296347A1", "about": "“Compositions and Methods for Prophylaxis and Treatment of Addictions” (Omeros Corporation, priority 2007, published 2013)", "key": {"Wistar rats [1]": {"tested_on": "Wistar rats", "assay": "Acquisition of heroin self-administration (FR1)", "assay_type": "in vivo, rat"}, "[2]": {"tested_on": "Marchigian Sardinian alcohol-preferring (msP) rats", "assay": "Acute voluntary ethanol intake, alcohol access restricted to 2 hours/day", "assay_type": "in vivo, rat", "procedure": "At the beginning of the experiments, msP rats were allowed free choice between water and 10% (v/v) alcohol 24 h/day for at least 15 days. The fluids were offered in graduated drinking tubes equipped with metallic drinking spouts. The position (to the right or left) of alcohol and water drinking tubes was changed daily to avoid the development of side preference. Water and food were available ad libitum, while alcohol access was either restricted to 2 hours/day (Examples 1 and 2) or was available 24 hours/day (Examples 3 and 4). Alcohol, water and food intakes were measured.\n. After acquisition of a stable baseline of ethanol intake (6-8 g/kg bw; daily), alcohol access was restricted to 2 hours a day at the beginning of the dark phase. Water and food were freely available.\n[…]. Before starting the treatment, rats were trained to gavage administration procedures for three days, during which they received vehicle (distilled water).\nTreatments were carried out at intervals of at least three days. […] Drinking experiments were conducted right at the beginning of the dark cycle. Alcohol, water and food intakes were monitored at 30, 60, 90 and 120 minutes after ethanol was made available.\nThe msP rats (n=8) were prepared for the study as described in Example 1. After acquisition of a stable baseline of ethanol intake, alcohol access was restricted to 2 hours a day at the beginning of the dark phase. Water and food were freely available. […]. The experiment was conducted using a within subject counterbalanced Latine square design where each animal received all drug doses.\nThese experiments were conducted at the beginning of the dark cycle and alcohol, and water and food intakes were monitored at 30, 60, 90 and 120 minutes after ethanol was made available."}, "Wistar rats [3]": {"tested_on": "Wistar rats", "assay": "FR5 cocaine self-administration", "assay_type": "in vivo, rat", "conditions": "pioglitazone both 10.0 and 30.0 mg/kg OS 12 hours and 1 hour before session", "procedure": "[…]. Drug or vehicle solution was infused at a volume of 0.1 ml over 4 s.\nMale Wistar rats weighing between 180 and 200 g at the time of arrival in the lab were used. The rats were housed in groups of three in a humidity- and temperature-controlled (22° C.) vivarium on a 12 h: 12 h reverse light/dark cycle (on, 17:00; off, 05:00) with ad libitum access to food and water. One week after arrival, rats were subjected to surgery, and a silastic catheter was implanted into the right jugular vein.\nCocaine self-administration training continued until a stable baseline of responding was reached (less than 10% variation for 3 consecutive days calculated for each single rat). At this point, drug testing begun.\n. […] A 3-day interval was allowed between drug testing. During these intervals, cocaine self-administration was continued to re-establish baseline lever responses."}, "[4]": {"conditions": "Young, Buckle et al. 1998; Breidert et al. 2002; cited from earlier work"}, "Long Evans rats": {"tested_on": "Long Evans rats", "assay": "Yohimbine-induced reinstatement of nicotine seeking", "assay_type": "in vivo, rat", "conditions": "pioglitazone all doses tested (5.0, 10.0 and 30.0 mg/kg), 12 and 1 hour before test", "procedure": "Stress and anxiety are major factors in resuming nicotine use in former abstinent users. […] Reinstatement experiments and relative drug treatments were performed every third day. Between reinstatements, extinction baseline was re-established."}, "msP rats [5]": {"tested_on": "msP rats", "assay": "Acute voluntary ethanol intake, free choice 10% alcohol 24 hours a day", "assay_type": "in vivo, rat", "procedure": "MsP rats were first trained to drink 10% (w/v) alcohol for 24 hours a day (free choice between water and ethanol). […] Before starting the treatment, rats were trained to gavage administration procedures for three days, during which they received vehicle (distilled water). […] Drinking experiments started at the beginning of the dark cycle. Alcohol, water and food intakes were monitored at 2, 8 and 24 hours after ethanol was made available.\nBefore starting the treatment, rats were trained to gavage and IP administration procedures for three days. Experiment was conducted in a between subject design (n=22). […] Drinking experiments started at the beginning of the dark cycle. Alcohol, water and food intakes were monitored at 2, 8 and 24 hours after ethanol was made available.\nThe drinking experiments were conducted at the beginning of the dark cycle, and alcohol, water and food intakes were monitored at 2, 8 and 24 hours after ethanol was made available.\n(§1) MsP rats were first trained to drink 10% (w/v) alcohol for 24 hours a day (free choice between water and ethanol). […] Rats treated with drug vehicles served as a control. Before starting the treatment, rats were trained to gavage administration for three days, during which they received drugs vehicle (distilled water). […] Drinking experiments started at the beginning of the dark cycle. Alcohol, water, and food intakes were monitored at 2, 8 and 24 hours after ethanol was made available.\nas §1, with “water” for “water,”\nas §1, with “water” for “water,”\nas §1, with “water” for “water,”\nas §1, with “water” for “water,”\nas §1, with “water” for “water,”"}, "msP rats [6]": {"tested_on": "msP rats", "assay": "Cue-induced reinstatement of alcohol seeking", "assay_type": "in vivo, rat", "conditions": "pioglitazone 10.0, 30.0 mg/kg at 12 hours and 1 hour before test", "description": "Cue-induced reinstatement of alcohol-seeking behaviour experimental procedures consisted of three phases: (1) conditioning phase; (2) extinction phase; and (3) reinstatement phase, as described below.\nFor the conditioning phase, at the completion of the fading procedure (see above), in 30 min daily sessions, animals were trained to discriminate between 10% alcohol and water. Beginning with self-administration training at the 10% alcohol concentration, discriminative stimuli (SD) predictive of alcohol versus water availability were presented during the alcohol and water self-administration sessions, respectively. The discriminative stimulus for alcohol consisted of the odour of an orange extract (S^+) whereas water availability (i.e. no reward) was signalled by an anise extract (S^−). The olfactory stimuli were generated by depositing six to eight drops of the respective extract into the bedding of the operant chamber. In addition, each lever-press resulting in delivery of alcohol was paired with illumination of the chamber's house light for 5 sec (CS^+). The corresponding cue during water sessions was a 5 second tone (70 dB) (CS). Concurrently with the presentation of these stimuli, a 5 sec. time-out period was in effect, during which responses were recorded but not reinforced. The olfactory stimuli serving as S^+ or S^− for alcohol availability were introduced one minute before extension of the levers and remained present throughout the 30-min. sessions. The bedding of the chamber was changed and bedding trays were cleaned between sessions. During the first three days of the conditioning phase, the rats were given alcohol sessions only. Subsequently, alcohol and water sessions were conducted in random order across training days, with the constraint that all rats received a total of 10 alcohol and 10 water sessions.\nFor the extinction phase, after the last conditioning day, rats were subjected to 30-min extinction sessions for 15 consecutive days. During this phase, sessions began by extension of the levers without presentation of the SD. […]"}, "msP rats [7]": {"tested_on": "msP rats", "assay": "Yohimbine-induced (stress) reinstatement of alcohol seeking", "excerpt": "Stress-induced reinstatement of alcohol-seeking experimental procedures consisted of three phases: (1) training phase; (2) extinction phase; and (3) reinstatement phase, as described below.\nFor the training phase, after completion of the fading procedure, msP rats were trained to self-administer 10% (v/v) alcohol for 15 days in 30-min daily sessions under a FR1 schedule of reinforcement. During the infusion, a stimulus house light was turned on for 5 s (time out; TO).\nFor the extinction phase, after the last alcohol self-administration session, animals were subjected to 30-min extinction sessions for 15 consecutive days.\nThe day after the last extinction session, rats were subjected to the reinstatement test.\nAnimals received all drug treatments according to a counterbalance Latin square design. A 3-day interval, during which animals were subjected to extinction sessions, was allowed between drug tests."}, "[8]": {"conditions": "pioglitazone 30 mg/kg OS at 12 hours and 1 hour before access to ethanol"}}, "note": "“Also recorded” adds a separate entry of the source."}
{"smiles": "CCc1ccc(CCOc2ccc(CC3SC(=O)NC3=O)cc2)nc1.Cl", "note": "(centres unmarked) [pioglitazone]", "values": [{"measurement": "heroin self-administration versus control, day 3 to day 8", "setting": "Wistar rats [1]; pioglitazone 30 mg/kg twice daily", "result": "significant difference"}, {"measurement": "acquisition of heroin self-administration", "setting": "Wistar rats [1]; pioglitazone 30 mg/kg twice daily (12 hours and 1 hour prior to session)", "result": "significantly decreased"}, {"measurement": "ethanol consumption at 30, 60, or 90 minutes", "setting": "[2]; [8]", "result": "not at 30, 60, or 90 minutes"}, {"measurement": "ethanol consumption at 2 hours", "setting": "[2]; [8]", "result": "significantly reduced"}, {"measurement": "ethanol intake, overall treatment effect (ANOVA)", "setting": "[2]; pioglitazone 10.0, 30.0 mg/kg OS", "result": "absence of a significant treatment effect"}, {"measurement": "cocaine self-administration", "setting": "Wistar rats [3]", "result": "significant (p<0.01) reduction"}, {"measurement": "crossing of the blood brain barrier compared with rosiglitazone", "setting": "[4]", "result": "crosses the blood brain barrier more easily"}, {"measurement": "yohimbine-induced reinstatement of nicotine seeking", "setting": "Long Evans rats", "result": "prevented; also recorded: significantly (p<0.001) decreased"}, {"measurement": "ethanol intake, drug alone (post-hoc)", "setting": "msP rats [5]; low dose given at 12 hours and 1 hour before access, pioglitazone 10 mg/kg OS, partner drugs at doses of the examples", "result": "did not significantly modify"}, {"measurement": "ethanol intake at 2 hours, drug alone", "setting": "msP rats [5]; pioglitazone 10 mg/kg OS, topiramate 30.0 mg/kg OS, p<0.05", "result": "significant reduction"}, {"measurement": "ethanol consumption at 2 hours", "setting": "msP rats [5]; pioglitazone 30 mg/kg OS", "result": "significantly reduced"}, {"measurement": "ethanol consumption at 8 hours", "setting": "msP rats [5]; pioglitazone 30 mg/kg OS", "result": "significantly reduced"}, {"measurement": "ethanol consumption at 24 hours", "setting": "msP rats [5]; pioglitazone 30 mg/kg OS", "result": "significantly reduced"}, {"measurement": "cue-induced (conditioned) reinstatement of alcohol-seeking", "setting": "msP rats [6]", "result": "not significantly modified; also recorded: lack of effect"}, {"measurement": "yohimbine-induced reinstatement of alcohol seeking (active lever)", "setting": "msP rats [7]; pioglitazone 10 mg/kg OS at 12 hours and 1 hour before test", "result": "clear trend (p=0.07) to an inhibition"}, {"measurement": "yohimbine-induced reinstatement of alcohol seeking (active lever)", "setting": "msP rats [7]; pioglitazone 30 mg/kg OS at 12 hours and 1 hour before test, p<0.01", "result": "significant inhibition"}, {"measurement": "effect of yohimbine on reinstatement of responding, overall", "setting": "msP rats [7]; pre-treatment with pioglitazone 10.0 and 30.0 mg/kg", "result": "significantly reduced; also recorded: markedly reduced"}]}
